Source: the supplement of paper PMC10307832

Tests used:
Experiment in all cases: relative viability (nuclei count vs DMSO), 5 days (fraction); higher = more cells survive
[1] = compound: CC(C)CCN1c2nc(Nc3cc(F)c(O)c(F)c3)ncc2N(C)C(=O)C1C [BI-D1870] + CC(=O)c1c(C)c2cnc(Nc3ccc(N4CCNCC4)cn3)nc2n(C2CCCC2)c1=O [Palbociclib] (partner 0.5 µM)
Summary of the method: (§1)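 Nuclei were stained with Hoechst during a one-step fixation (final 0.05% Triton X-100, 1% formaldehyde, 1 ug/ml Hoechst) carried out 5 days after dosing, then counted on 4× images. The cells, lung cancer lines in 1536-well plates, had been dosed by pin tool the day after seeding with one drug alone or a fixed anchor-drug dose plus five library-drug doses (not always all listed) in √10 steps. Relative viability is the nuclei count in treated wells divided by that in vehicle wells, and each value is the median of duplicate plates.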

[2] = compound: CC(C)CCN1c2nc(Nc3cc(F)c(O)c(F)c3)ncc2N(C)C(=O)C1C [BI-D1870] + CCNC(=O)c1noc(-c2cc(C(C)C)c(O)cc2O)c1-c1ccc(CN2CCOCC2)cc1 [Luminespib] (partner 0.01 µM)
Summary of the method: as §1

[3] = compound: CC(C)CCN1c2nc(Nc3cc(F)c(O)c(F)c3)ncc2N(C)C(=O)C1C [BI-D1870] + NC(=O)Nc1cc(-c2cccc(F)c2)sc1C(=O)N[C@H]1CCCNC1 [AZD7762] (partner 0.2 µM)
Summary of the method: as §1

[4] = compound: O=c1ncccn1[C@@H]1O[C@H](CO)[C@@H](O)[C@H]1O [Zebularine] + CC(=O)c1c(C)c2cnc(Nc3ccc(N4CCNCC4)cn3)nc2n(C2CCCC2)c1=O [Palbociclib] (partner 0.5 µM)
Summary of the method: as §1

Row | Cell Line | relative viability ([1]; first compound 0.04 µM) | relative viability ([1]; first compound 0.1265 µM) | relative viability ([1]; first compound 0.4 µM) | relative viability ([1]; first compound 1.265 µM) | relative viability ([1]; first compound 4 µM) | relative viability ([2]; first compound 0.04 µM) | relative viability ([2]; first compound 0.1265 µM) | relative viability ([2]; first compound 0.4 µM) | relative viability ([2]; first compound 1.265 µM) | relative viability ([2]; first compound 4 µM) | relative viability ([3]; first compound 0.04 µM) | relative viability ([3]; first compound 0.1265 µM) | relative viability ([3]; first compound 0.4 µM) | relative viability ([3]; first compound 1.265 µM) | relative viability ([3]; first compound 4 µM) | relative viability ([4]; first compound 1 µM) | relative viability ([4]; first compound 3.162 µM) | relative viability ([4]; first compound 10 µM) | relative viability ([4]; first compound 31.62 µM) | relative viability ([4]; first compound 100 µM)
1 | NCI-H1915 | 0.577 | 0.504 | 0.469 | 0.451 | 0.376 | 0.957 | 0.673 | 0.732 | 0.873 | 0.761 | 0.706 | 0.636 | 0.665 | 0.7 | 0.616 | 0.523 | 0.525 | 0.485 | 0.541 | 0.352
2 | NCI-H322M | 0.492 | 0.475 | 0.461 | 0.483 | 0.501 | 0.956 | 0.84 | 0.884 | 0.88 | 0.774 | 0.591 | 0.558 | 0.611 | 0.684 | 0.656 | 0.467 | 0.486 | 0.471 | 0.463 | 0.496
3 | NCI-H2342 | 0.508 | 0.511 | 0.528 | 0.528 | 0.559 | 0.706 | 0.718 | 0.711 | 0.758 | 0.907 | 0.493 | 0.609 | 0.392 | 0.803 | 0.667 | 0.508 | 0.498 | 0.5 | 0.526 | 0.47
4 | NCI-H647 | 0.488 | 0.342 | 0.463 | 0.371 | 0.215 | 0.158 | 0.0954 | 0.206 | 0.31 | 0.107 | 0.432 | 0.502 | 0.494 | 0.611 | 0.479 | 0.334 | 0.34 | 0.149 | 0.0894 | 0.104
5 | NCI-H2170 | 0.455 | 0.38 | 0.423 | 0.447 | 0.398 | 0.817 | 0.723 | 0.751 | 0.65 | 0.67 | 0.977 | 0.882 | 0.844 | 0.923 | 0.654 | 0.415 | 0.351 | 0.366 | 0.404 | 0.283
6 | NCI-H2085 | 0.453 | 0.475 | 0.474 | 0.456 | 0.355 | 0.483 | 0.452 | 0.503 | 0.407 | 0.364 | 1.06 | 0.972 | 0.927 | 0.97 | 0.771 | 0.451 | 0.47 | 0.509 | 0.552 | 0.394
7 | NCI-H727 | 0.594 | 0.579 | 0.648 | 0.64 | 0.66 | 0.235 | 0.354 | 0.302 | 0.332 | 0.314 | 0.575 | 0.793 | 0.569 | 0.838 | 0.515 | 0.652 | 0.729 | 0.69 | 0.634 | 0.618
8 | NCI-H441 | 0.266 | 0.21 | 0.173 | 0.225 | 0.229 | 0.474 | 0.267 | 0.359 | 0.394 | 0.412 | 1.29 | 1.09 | 1.03 | 1.09 | 1.1 | 0.235 | 0.21 | 0.207 | 0.148 | 0.181
9 | LOU-NH91 | 0.497 | 0.57 | 0.499 | 0.529 | 0.509 | 0.366 | 0.33 | 0.315 | 0.351 | 0.264 | 0.846 | 0.755 | 0.73 | 0.804 | 0.624 | 0.54 | 0.524 | 0.518 | 0.552 | 0.47
10 | NCI-H3122 | 0.187 | 0.176 | 0.211 | 0.267 | 0.216 | 0.0791 | 0.0919 | 0.0942 | 0.11 | 0.124 | 0.947 | 0.902 | 0.952 | 1.06 | 0.944 | 0.204 | 0.185 | 0.173 | 0.195 | 0.19
11 | NCI-H460 | 0.226 | 0.154 | 0.135 | 0.184 | 0.121 | 0.0324 | 0.0316 | 0.0261 | 0.0295 | 0.0315 | 0.702 | 0.621 | 0.566 | 0.993 | 0.829 | 0.201 | 0.136 | 0.161 | 0.117 | 0.0697
12 | NCI-H650 | 0.384 | 0.304 | 0.338 | 0.353 | 0.233 | 0.867 | 0.641 | 0.732 | 0.918 | 0.481 | 1.14 | 0.83 | 0.897 | 1.17 | 0.778 | 0.358 | 0.376 | 0.296 | 0.263 | 0.195
13 | NCI-H1793 | 0.369 | 0.274 | 0.291 | 0.391 | 0.318 | 0.176 | 0.16 | 0.194 | 0.146 | 0.167 | 0.74 | 0.411 | 0.296 | 0.417 | 0.504 | 0.364 | 0.309 | 0.214 | 0.186 | 0.221
14 | NCI-H1734 | 0.334 | 0.302 | 0.337 | 0.345 | 0.309 | 0.19 | 0.175 | 0.188 | 0.187 | 0.222 | 0.635 | 0.494 | 0.608 | 0.72 | 0.593 | 0.408 | 0.334 | 0.322 | 0.3 | 0.239
15 | LXF-289 | 0.577 | 0.583 | 0.598 | 0.641 | 0.558 | 0.809 | 0.607 | 0.674 | 0.74 | 0.533 | 1.08 | 1.04 | 1.07 | 1.06 | 0.943 | 0.641 | 0.66 | 0.573 | 0.395 | 0.233
16 | H3255 | 0.335 | 0.311 | 0.325 | 0.335 | 0.321 | 0.929 | 0.887 | 0.884 | 1.09 | 0.961 | 0.956 | 0.965 | 0.851 | 1.07 | 0.892 | 0.3 | 0.288 | 0.336 | 0.314 | 0.321
